Measurements taken from patent US7323601B2, “Enanitomers of unsaturated alkyllysophosphonocholines and use as anti-neoplastics” (Research Foundation of the City University of New York, priority 2001, dated 2008).

Experiments:
HT29 tumor cell line = experiment: Growth inhibition (GI50), HT29; format: cell-based, human
[1] = tested on: SK-N-MC neuroblastoma cell line; experiment: Proliferation of log-phase cells, SK-N-MC; format: cell-based; details: 48 h incubation, 10% FBS-supplemented medium, read-out: IC50 values (drug concentration required to reduce cell growth by 50%)
Method: (§1) All the cell lines were grown from frozen stocks originally obtained from ATCC. T47D, MDA-MB-468 and MCF-7 (breast cancer cell lines) were grown in DMEM. SK-N-MC and SK-N-SH (neuroblastoma) were grown in minimum essential medium with non-essential amino acids and Earle's balanced salt solution. All media were supplemented with 10% FBS and antibiotics (Ashagbley, A., Samadder, P., Bittman, R., Erukulla, R. K., Byun, H-S., Arthur, G. (I 996) Anticancer Res. 16, 1813-1818).
(§2) The effect of the ET-16-phosphono-TDBs on cell proliferation was conducted as previously described (Ashagbley, A., Samadder, P., Bittman, R., Erukulla, R. K., Byun, H-S., Arthur, G. (1996) Anticancer Res. 16, 1813-1818; and Lu, X., and Arthur, G. (1992) Cancer Res. 52, 2806-2812). The cells were seeded in 24-well dishes at a density of 20,000 cells/well with 10% FBS-supplemented medium. The cell numbers were monitored daily. […] The cell numbers at the time of addition of the drugs were determined with a Coulter ZM counter. After 48 h incubation, the cell numbers were determined and the increase in cell number over the numbers at the time of the addition of the drugs was determined and expressed as a function of the control cells which received no drug. The viability of the cells was assessed by the ability to exclude trypan blue dye.

[2] = tested on: NIH-3T3 normal fibroblast cell line; experiment: Growth inhibition (GI50), NIH-3T3; format: cell-based; details: NIH-3T3 normal cell line (murine)
Text: (§3) For growth inhibitory evaluation, five human tumor cell lines (U937; HT29; A549; MCF7; MCF7/ADR) and two normal fibroblast cell lines (NIH-3T3, murine; WI-38, human) were used. For comparison, the activity of free L-ET18OCH3 and D-ET18OCH3 was examined.

[3] = tested on: SK-N-SH neuroblastoma cell line; experiment: Proliferation of log-phase cells, SK-N-SH; format: cell-based; details: 48 h incubation, 10% FBS-supplemented medium, read-out: IC50 values (drug concentration required to reduce cell growth by 50%)
Method: as §1, §2

[4] = tested on: T47D breast epithelial cancer cell line; experiment: Proliferation of log-phase cells, T47D; format: cell-based; details: 48 h incubation, 10% FBS-supplemented medium, read-out: IC50 values (drug concentration required to reduce cell growth by 50%)
Method: as §1, §2

[5] = tested on: MCF-7 breast epithelial cancer cell line; experiment: Proliferation of log-phase cells, MCF-7; format: cell-based; details: 48 h incubation, 10% FBS-supplemented medium, read-out: IC50 values (drug concentration required to reduce cell growth by 50%)
Method: as §1, §2

MCF7/ADR tumor cell line = experiment: Growth inhibition (GI50), MCF7/ADR; format: cell-based, human
A549 tumor cell line = experiment: Growth inhibition (GI50), A549; format: cell-based, human
[6] = tested on: MDA-MB-468 breast epithelial cancer cell line; experiment: Proliferation of log-phase cells, MDA-MB-468; format: cell-based; details: 48 h incubation, 10% FBS-supplemented medium, read-out: IC50 values (drug concentration required to reduce cell growth by 50%)
Method: as §1, §2

MCF7 tumor cell line = experiment: Growth inhibition (GI50), MCF7; format: cell-based, human
U937 tumor cell line = experiment: Growth inhibition (GI50), U937; format: cell-based, human
[7] = tested on: normal cell lines as compared to the tumor cell lines; experiment: Growth inhibition, normal versus tumor cell lines; format: cell-based; details: normal (NIH-3T3, WI-38) versus tumor cell lines
Text: as §3

[8] = tested on: WI-38 normal fibroblast cell line; experiment: Growth inhibition (GI50), WI-38; format: cell-based; details: WI38 normal cell line (human)
Text: as §3

PKB/AKT = PKB/AKT phosphorylation in stimulated MCF-7 cells (Western blot); format: cell-based; details: 15 μM preincubation 3 h; insulin- and EGF-stimulated MCF-7 cells
Method: (§4) Quiescent MCF-7 cells were preincubated with (“+” in FIGS. 6-8) or without (“−” in FIGS. 6-8) 15 μM of the R or S enantiomer of ET-16-phosphono-TDB (TDB-PC in FIGS. 7-9) in DMEM supplemented with BSA (0.5 mg/mL) for 3 h. The cells were washed twice and stimulated with […] growth factor (EGF) or insulin for various periods. At the end of the incubation, the medium was aspirated, and the cells washed with ice-cold PBS and scraped into ice cold buffer comprising 20 mM Tris-HCl (pH 7.4) 2 mM EGTA, 100 mM β-glycerophosphate, 1 mM Na3VO4, aprotinin (10 μg/mL), leupeptin (10 μg/mL), 0.2 mM aininoethylbenzylsulfonyl fluoride, 0.2 mM benzarnidine, 1 mM dithiothreitol, 1% triton-X-100, and 0.5% NP-40). After ultrasonication, the mixture was centrifuged at 100,000×g for 30 min. The cell lysates were flash frozen and stored at −70° C. until required.
(§5) MAP kinase activity in cell lysates from EGF and insulin-stimulated MCF-7 cells were assessed by Western blot analysis with phospho-specific antibodies according to the instructions provided by the manufacturer (New England Biolabs). PKB/AKT activity in insulin-stimulated MCF-7 cell lysates was also assessed with phospho-specific antibodies by Western blot analysis. Bound antibody was visualized by chemiluminescence using reagents from Boehringer Mannheim and quantitated with a multiimager Fluor S system (BioRad).

MAP kinase = MAP kinase phosphorylation in stimulated MCF-7 cells (Western blot); format: cell-based; details: 15 μM preincubation 3 h; insulin- and EGF-stimulated MCF-7 cells
Method: as §4, §5

With `CCCCCCCCCCCCCCCCOC[C@@H](C=CP(=O)([O-])OCC[N+](C)(C)C)OC` [(R)-ET-16-phosphono-TDB, 2′-(Trimethylammonio)ethyl 4-(hexadecyloxy)-3-(R)-methoxy-1-butenephosphonate] the GI50 (HT29 tumor cell line) was 5.9 µM, the IC50 [1] was > 5 µM and the GI50 [2] was 77.3 µM. For the same compound, the IC50 [3] was 2.5 µM, the IC50 [4] was > 5 µM and the IC50 [5] was 4.1 µM. The GI50 (MCF7/ADR tumor cell line) was > 40 µM, the GI50 (A549 tumor cell line) was 15.3 µM and the IC50 [6] was > 5 µM. The GI50 (MCF7 tumor cell line) was 35.1 µM, the GI50 (U937 tumor cell line) was 2.2 µM and the “selectivity: GI50 values for the normal cell lines as compared to the tumor cell lines” value [7] was “remarkable selectivity”. The GI50 [8] was 57.5 µM.
With `CCCCCCCCCCCCCCCCOC[C@H](C=CP(=O)([O-])OCC[N+](C)(C)C)OC` [(S)-ET-16-phosphono-TDB, 2′-(Trimethylammonio)ethyl 4-(hexadecyloxy)-3-(S)-methoxy-1-butenephosphonate] the GI50 (HT29 tumor cell line) was 2.8 µM, the IC50 [1] was 2.2 µM and the “inhibition of phosphorylation of PKB” value (PKB/AKT) was “to a greater extent than the less active R enantiomer”. For the same compound, the GI50 [2] was 66.3 µM, the IC50 [3] was 1.8 µM and the IC50 [4] was 0.9 µM. The IC50 [5] was 1.9 µM, the GI50 (MCF7/ADR tumor cell line) was > 40 µM and the GI50 (A549 tumor cell line) was 9 µM. For the same compound, the IC50 [6] was 4.2 µM, the GI50 (MCF7 tumor cell line) was 32.4 µM and the GI50 (U937 tumor cell line) was 1.1 µM. For the same compound, the “selectivity: GI50 values for the normal cell lines as compared to the tumor cell lines” value [7] was “remarkable selectivity”, the “inhibition of phosphorylation of MAP kinase” value (MAP kinase) was “to a greater extent than the less active R enantiomer” and the GI50 [8] was 14.4 µM.
